How the values were obtained:
[1] = cited from earlier work
hDAT = hDAT (Homo sapiens, UniProt Q01959); experiment: Radioligand binding, DAT ([3H]WIN35,428)
hSERT = hSERT (Homo sapiens, UniProt P31645); experiment: Radioligand binding, SERT ([3H]citalopram)
rTAAR1 = rTAAR1 (Rattus norvegicus, UniProt Q923Y9); experiment: Radioligand binding, rat TAAR1 ([3H]RO5166017)
mTAAR1 = mTAAR1 (Mus musculus, UniProt Q923Y8); experiment: Radioligand binding, mouse TAAR1 ([3H]RO5166017)
hNET = hNET (Homo sapiens, UniProt P23975); experiment: Radioligand binding, NET (N-methyl-[3H]nisoxetine)
hNET, sequence (P23975 whole entry): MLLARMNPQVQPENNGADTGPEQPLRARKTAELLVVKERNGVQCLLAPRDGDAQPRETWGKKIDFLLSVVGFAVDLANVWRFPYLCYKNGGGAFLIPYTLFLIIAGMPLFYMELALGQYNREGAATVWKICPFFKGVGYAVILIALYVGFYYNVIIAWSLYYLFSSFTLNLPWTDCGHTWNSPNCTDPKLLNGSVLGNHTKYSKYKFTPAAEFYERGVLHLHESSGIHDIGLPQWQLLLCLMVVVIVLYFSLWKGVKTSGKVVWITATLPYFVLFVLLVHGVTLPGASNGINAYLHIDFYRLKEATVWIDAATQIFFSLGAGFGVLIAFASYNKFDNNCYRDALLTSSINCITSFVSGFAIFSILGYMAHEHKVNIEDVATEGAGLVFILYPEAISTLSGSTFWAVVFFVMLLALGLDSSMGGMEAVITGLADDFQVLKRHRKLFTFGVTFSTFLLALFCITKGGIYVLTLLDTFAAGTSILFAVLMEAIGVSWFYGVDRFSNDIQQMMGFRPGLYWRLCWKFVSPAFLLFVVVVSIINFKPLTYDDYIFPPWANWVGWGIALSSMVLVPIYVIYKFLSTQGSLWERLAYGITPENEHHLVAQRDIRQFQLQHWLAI

[2] = anecdotal, ref Shulgin and Shulgin, 1991

hDAT, sequence (Q01959 whole entry): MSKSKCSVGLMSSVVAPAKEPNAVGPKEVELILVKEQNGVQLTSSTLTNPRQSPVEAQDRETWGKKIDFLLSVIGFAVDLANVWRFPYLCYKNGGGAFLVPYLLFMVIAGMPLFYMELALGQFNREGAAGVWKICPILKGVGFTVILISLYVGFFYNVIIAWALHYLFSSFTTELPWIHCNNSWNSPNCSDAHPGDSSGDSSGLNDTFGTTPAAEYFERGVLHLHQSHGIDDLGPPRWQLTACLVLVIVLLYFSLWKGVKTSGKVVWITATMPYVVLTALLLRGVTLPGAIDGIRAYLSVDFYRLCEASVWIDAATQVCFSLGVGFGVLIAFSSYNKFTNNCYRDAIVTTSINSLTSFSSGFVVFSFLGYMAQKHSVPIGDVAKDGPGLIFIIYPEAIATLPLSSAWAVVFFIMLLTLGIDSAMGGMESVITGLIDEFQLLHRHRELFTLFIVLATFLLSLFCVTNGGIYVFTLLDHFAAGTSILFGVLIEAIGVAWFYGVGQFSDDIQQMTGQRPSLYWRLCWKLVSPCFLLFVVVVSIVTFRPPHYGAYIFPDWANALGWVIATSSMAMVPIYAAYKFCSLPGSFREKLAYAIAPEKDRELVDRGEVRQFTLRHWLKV
hSERT, sequence (P31645 whole entry): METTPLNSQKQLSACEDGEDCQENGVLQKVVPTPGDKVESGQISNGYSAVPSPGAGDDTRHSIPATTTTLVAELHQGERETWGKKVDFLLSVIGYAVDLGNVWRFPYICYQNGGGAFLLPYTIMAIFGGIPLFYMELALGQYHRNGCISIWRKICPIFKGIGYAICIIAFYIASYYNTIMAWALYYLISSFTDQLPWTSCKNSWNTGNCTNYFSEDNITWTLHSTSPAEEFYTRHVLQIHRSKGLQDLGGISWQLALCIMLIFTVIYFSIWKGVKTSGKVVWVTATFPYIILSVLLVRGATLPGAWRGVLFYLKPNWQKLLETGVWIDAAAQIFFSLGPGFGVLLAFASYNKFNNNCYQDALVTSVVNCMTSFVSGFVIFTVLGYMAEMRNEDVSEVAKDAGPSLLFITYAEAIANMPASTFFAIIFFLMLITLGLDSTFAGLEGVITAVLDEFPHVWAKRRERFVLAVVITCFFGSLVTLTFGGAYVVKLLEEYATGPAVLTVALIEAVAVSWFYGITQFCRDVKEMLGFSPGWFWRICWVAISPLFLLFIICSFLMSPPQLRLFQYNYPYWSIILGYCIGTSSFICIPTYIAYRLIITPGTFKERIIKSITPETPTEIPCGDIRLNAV
mTAAR1, sequence (Q923Y8 whole entry): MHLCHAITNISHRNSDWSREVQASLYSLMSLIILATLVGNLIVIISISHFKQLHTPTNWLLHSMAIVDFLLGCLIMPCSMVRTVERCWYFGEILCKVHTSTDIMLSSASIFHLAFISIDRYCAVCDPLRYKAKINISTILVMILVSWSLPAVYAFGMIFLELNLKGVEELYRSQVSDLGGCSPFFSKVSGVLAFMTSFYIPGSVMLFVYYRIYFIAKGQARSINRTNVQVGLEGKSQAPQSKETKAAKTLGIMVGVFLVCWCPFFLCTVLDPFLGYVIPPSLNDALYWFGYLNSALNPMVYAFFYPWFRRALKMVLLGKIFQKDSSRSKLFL
rTAAR1, sequence (Q923Y9 whole entry): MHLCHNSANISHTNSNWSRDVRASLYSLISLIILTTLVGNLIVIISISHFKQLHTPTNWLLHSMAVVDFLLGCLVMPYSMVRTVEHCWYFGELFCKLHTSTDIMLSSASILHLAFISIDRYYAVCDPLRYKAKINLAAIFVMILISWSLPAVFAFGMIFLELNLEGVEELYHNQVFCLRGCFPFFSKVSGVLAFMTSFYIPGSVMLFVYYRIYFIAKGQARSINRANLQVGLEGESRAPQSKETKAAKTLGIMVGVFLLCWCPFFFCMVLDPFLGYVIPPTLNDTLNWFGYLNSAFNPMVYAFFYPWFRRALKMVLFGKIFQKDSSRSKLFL

Structure (SMILES)	duration of effects in humans [1, 2] [h]	psychoactive dose in humans [1, 2] [mg]	Ki (hDAT; hDAT Ki ± SD, [3H]WIN35,428) [nM]	Ki (hSERT; hSERT Ki ± SD, [3H]citalopram) [nM]	Ki (rTAAR1) [nM]	Ki (mTAAR1) [nM]	Ki (hNET) [nM]	activity in humans ([1]; doses up to 300 mg)	Ki (hDAT; DAT Ki) [nM]	Ki (hSERT; SERT Ki, no binding observed) [nM]	dose with some psychoactivity in humans ([1]; initial doses, anecdotal, ref Trachsel et al., 2013) [mg]
COc1cc(OC)c(CC(C)N)c(OC)c1 (stereo not shown) [TMA-6, 2,4,6-trimethoxyamphetamine]	12 to 16	25 to 50	> 8500	> 7500	180 ± 20	850 ± 20	> 8800				
COc1cc(OC)c(CCN)c(OC)c1 [Ψ-2C-O-1, 2,4,6-trimethoxyphenethylamine]			> 8500	> 7500	57 ± 12	590 ± 20	> 8800	inactive			
CCOc1cc(OC)c(CCN)c(OC)c1 [Ψ-2C-O-2, 2,6-dimethoxy-4-ethoxyphenethylamine]			> 8500	> 7500		230 ± 20	> 8800				
C=C(C)COc1cc(OC)c(CCN)c(OC)c1 [Ψ-2C-O-3, 2,6-dimethoxy-4-methallyloxyphenethylamine]			7800	> 7500	6.4 ± 1.1	120 ± 20	> 8800				
C=CCOc1cc(OC)c(CCN)c(OC)c1 [Ψ-2C-O-16, 4-allyloxy-2,6-dimethoxyphenethylamine]			> 8500	> 7500	12	150 ± 20	> 8800				
COc1cc(OCCF)cc(OC)c1CCN [Ψ-2C-O-21, 2,6-dimethoxy-4-(2-fluoroethoxy)phenethylamine]			> 8500	> 7500	19 ± 1	320 ± 30	> 8800				
COc1cc(OCC(F)F)cc(OC)c1CCN [Ψ-2C-O-21.5, 4-(2,2-difluoroethoxy)-2,6-dimethoxyphenethylamine]			> 8500	> 7500	14 ± 3	220 ± 40	> 8800				
COc1cc(OCC(F)(F)F)cc(OC)c1CCN [Ψ-2C-O-22, 2,6-dimethoxy-4-(2,2,2-trifluoroethoxy)phenethylamine]			> 8500	> 7500	21 ± 2	210 ± 40	> 8800				
COc1cc(OCc2ccccc2)cc(OC)c1CCN [Ψ-2C-O-27, 4-benzyloxy-2,6-dimethoxyphenethylamine]			1300	> 7500	3.1 ± 0.2	610 ± 6	6200		1300 to 1800	< 7500	
COc1cc(OC(F)F)cc(OC)c1CCN [Ψ-2C-O-35, 4-(2,2-difluoromethoxy)-2,6-dimethoxyphenethylamine]			> 8500	> 7500	51 ± 4	680 ± 120	> 8800				17
COc1cc(OC(F)F)cc(OC)c1CC(C)N (stereo not shown) [Ψ-DODFMO, 4-(2,2-difluoromethoxy)-2,6-dimethoxyamphetamine]			> 8500	> 7500	140 ± 40	860 ± 40	> 8800				
C=CCOc1cc(OC)c(CC(C)N)c(OC)c1 (stereo not shown) [Ψ-MALM, 4-allyloxy-2,6-dimethoxyamphetamine]			> 8500	> 7500	58 ± 11	270 ± 50	> 8800				
COc1cc(OCc2ccccc2)cc(OC)c1CC(C)N (stereo not shown) [Ψ-MBnM, 4-benzyloxy-2,6-dimethoxyamphetamine]			1800	> 7500	6.1 ± 0.7	190 ± 10	7100		1300 to 1800	< 7500	
COc1cc(OCC(F)F)cc(OC)c1CC(C)N (stereo not shown) [Ψ-MDFEM, 4-(2,2-difluoroethoxy)-2,6-dimethoxyamphetamine]			5400	> 7500	66 ± 13	500 ± 70	> 8800				
CCOc1cc(OC)c(CC(C)N)c(OC)c1 (stereo not shown) [Ψ-MEM, 2,6-dimethoxy-4-ethoxyamphetamine]			> 8500	> 7500	110 ± 10	400 ± 20	> 8800				
COc1cc(OCCF)cc(OC)c1CC(C)N (stereo not shown) [Ψ-MFEM, 2,6-dimethoxy-4-(2-fluoroethoxy)amphetamine]			> 8500	> 7500	52 ± 18	560 ± 10	> 8800				
C=C(C)COc1cc(OC)c(CC(C)N)c(OC)c1 (stereo not shown) [Ψ-MMALM, 2,6-dimethoxy-4-methallyloxyamphetamine]			5700	> 7500	32 ± 5	250 ± 50	> 8800				
COc1cc(OCC(F)(F)F)cc(OC)c1CC(C)N (stereo not shown) [Ψ-MTFEM, 2,6-dimethoxy-4-(2,2,2-trifluoroethoxy)amphetamine]			6400	> 7500	110 ± 40	410 ± 80	> 8800				

— paper PMC12675387, “Receptor interaction profiles of 4-alkoxy-2,6-dimethoxyphenethylamines (Ψ derivatives) and related amphetamines” (Frontiers in Pharmacology, 2025)
